Reference: patent publication US10314793B2, “Solubilized CoQ-10” (Soft Gel Technologies, Inc., priority 2003, dated 2019)

Experiment: Solubilization of CoQ-10 in solvent (monoterpenes; prior liquid delivery solvents)
Type: physicochemical
Conditions: without heating or with gentle warming; ambient temperatures
From the text: The present invention pertains to the surprising discovery that ubiquinone (CoQ-10) and related analogs thereof can be readily dissolved in varying concentrations in monoterpenes. Generally, until the present discovery, most CoQ-10 liquid delivery methods could solubilize only up to about 5% by weight of the CoQ-10 in the “solvent”. Typical solvents included various oils or the CoQ-10 was held in suspension. The present invention provides the ability to solubilize CoQ-10 in monoterpenes in concentrations of up to about 60% (weight to weight) without the need to aggressively heat the solution or with gentle warming. In particular, the solubilization of the CoQ-10 with monoterpenes can be accomplished at ambient temperatures.
Generally, until the present discovery, most CoQ-10 liquid delivery methods could solubilize only up at most about 10% by weight of the CoQ-10 in the solvent. Typical solvents included oils or the CoQ-10 was held in an aqueous suspension. Alternatively, the CoQ-10 was provided as a solid in a tablet or powder.
The present invention provides the ability to solubilize CoQ-10 and analogs thereof in monoterpenes, as defined herein, in concentrations of up to about 60% (weight to weight) without the need to heat the solution. In one aspect, the monoterpene solubilizes CoQ-10 from about 0.1 percent by weight to about 45 percent by weight. […]

In the case of `COC1=C(OC)C(=O)C(C/C=C(\C)CC/C=C(\C)CC/C=C(\C)CC/C=C(\C)CC/C=C(\C)CC/C=C(\C)CC/C=C(\C)CC/C=C(\C)CC/C=C(\C)CCC=C(C)C)=C(C)C1=O` [CoQ-10], the “CoQ-10 solubilized in monoterpenes” value is reported as “up to 60 % (weight to weight)”.
